The text below walks through data of patent publication US20240082285A1 (priority 2022, published 2024).

For data set [1], the system named is Wa strain RV. Put plainly: Effect against RV synthesis (drug after virus), CCK-8 viral inhibition rate. The following applies: 48 h; for effect of synthesis inhibition on RV: MA104-2 cells, 100 TCID50 virus. The class given is cell-based, Rotavirus. The procedure: 100 TCID50 virus solution (the virus acts with 10 μg/mL pancreatin for 30 min) is added to the 96-well culture plate of the MA104-2 cells that grow to the single layer, and each well contains 100 μL. The cells have been washed twice with PBS. Normal cell control is set, and added with an equal volume of DMEM. Incubation is conducted at 37° C. and 5% CO2 for 2 h. Then, the virus solution is sucked out and added into different concentrations of drug solution and ribavirin respectively, and each well contains 100 μL. Virus control is set. Only the cell maintenance solution is added, and each well contains 100 μL. Incubation is conducted at 37° C. and 5% CO2 for continuous observation. After continuous culture for 48 h, CCK-8 kit is used for detection. 1/10 volume of CCK-8 solution is added to each well, and incubated in the incubator. After 90 min, the absorbance is detected and recorded at 450 nm wavelength. The viral inhibition rate of the drug is calculated, and the experiment is repeated for 3 times. The formula of the viral inhibition rate is:
(§1) {(Adrug group−Avirus group)/(Anormal group−Avirus group)×100%}.

Data set [2] deals with VP6 gene. Put plainly: Gene expression of structural protein VP6 in RV-infected MA104 cells, real-time quantitative PCR. In kind it is cell-based, Rotavirus. As to conditions: 1 μM, 5 M and 10 μM, compared with RV group, most significant at 5 μM. The source says: The Experimental Method is as Follows: • (1) Extraction and quantification of total RNA; • (2) Primer sequence design; • (3) Reverse transcription reaction; • (4) SYBR Green I fluorescent labeling is used for real-time quantitative PCR detection of expression of VP6 gene.

In data set [3] the test system is MA104 cells. Put plainly: Toxicity of Chebulinic acid to MA104 cells by CCK8 method. In kind it is cell-based. The following applies: 48 h. As to the method: According to the common drug concentration range of Chebulinic acid, the cytotoxicity pre-experiment is performed between 1 μM and 25 μM in this experiment. The MA104 cells at the logarithmic growth stage are observed under a microscope. The cellular morphology is uniform and full with clear edges, and when the number reaches 80%, digestion, centrifugation and re-suspension are conducted. After further dilution of the suspension, […] is taken on a blood cell counting plate to count and calculate the required cell volume. Then, the cells are laid in a 96-well plate, 100 µL of cell suspension is added to each well, and the cell density is 8×10^4 cells/mL. When the cells adhere to the wall to form a single layer, the drug group is administered, and the normal group is added with an equal volume of DMEM (without serum). After incubation for 48 h, the cytotoxicity of Chebulinic acid is detected by CCK8 reagent. 1/10 volume of CCK8 solution is added to each well and incubated in an incubator. After 90 min, the absorbance is detected and recorded under the condition of oscillation for 10 s and at 450 nm wavelength. The formula for the relative survival rate of the cells is:
{(Axpenmentai group−Ablank)/(Acontrol group−Ablaimk)×100%}.

For data set [4], the system named is Wa strain RV. Put plainly: Direct killing effect on RV (drug mixed with virus), CCK-8 viral inhibition rate. In kind it is cell-based, Rotavirus. As to conditions: MA104 cells, 100 TCID50 virus, 48 h; inhibition rate lower than ribavirin group. The procedure: The drug is mixed with 100 TCID50 virus solution (the virus acts with 10 μg/mL pancreatin for 30 min) at an equal volume for 2 h. After the cells are washed twice with PBS, the cells are added to the 96-well culture plate of the MA104 cells that grow to the single layer. In the positive control group, the same operation as above is conducted for ribavirin and RV, and only an equal volume of DMEM (without serum) is added to the normal cell control group and the viral control group. Incubation is conducted at 37° C. and 5% CO2 for 2 h. Then, the mixed solution is sucked out, the cell maintenance solution is added, and each well contains 100 μL. Incubation is conducted at 37° C. and 5% CO2 for continuous observation. After culture for 48 h, CCK-8 kit is used for detection. 1/10 volume of CCK-8 solution is added to each well, and incubated in the incubator. After 90 min, the absorbance is detected and recorded at 450 nm wavelength. The viral inhibition rate of the drug is calculated, and the experiment is repeated for 3 times. The formula of the viral inhibition rate is:
as §1

In data set [5] the test system is Wa strain RV. The data set is described as follows: Effect against RV adsorption (drug before virus), CCK-8 viral inhibition rate. In kind it is cell-based, Rotavirus. As to conditions: MA104 cells, 1 μM, 5 μM and 10 μM, compared with ribavirin group. The procedure: The 96-well culture plate of the MA104 cells that grow to the single layer is added with the drug solution. Each drug solution is repeated with 6 wells, and each well contains 100 μL. An equal volume of ribavirin is added to the positive control group, and only an equal volume of DMEM culture solution (without serum) is added to the normal cell control group and the viral control group. Incubation is conducted at 37° C. and 5% CO2 for 2 h. The drug solution is sucked out. Except the normal cell control group, 100 TCID50 virus is added (the virus acts with 10 μg/mL pancreatin at 37° C. for 30 min), and each well contains 100 μL. Incubation is conducted at 37° C. and 5% CO2 for 2 h. The virus is sucked out, the cell maintenance solution is added, and each well contains 200 μL. Incubation is conducted at 37° C. and 5% CO2 for continuous observation. After culture for 48 h, CCK-8 kit is used for detection. 1/10 volume of CCK-8 solution is added to each well, and incubated in the incubator. After 90 min, the absorbance is detected and recorded at 450 nm wavelength. The experiment is repeated for 3 times. The formula of the viral inhibition rate is:
as §1

The mark [6] stands for this setting: Rotavirus, read-out: anti-RV inhibition rate (synthesis).

In the case of `NC(=O)c1ncn([C@@H]2O[C@H](CO)[C@@H](O)[C@H]2O)n1` [ribavirin, reference compound], the “effect of synthesis inhibition on RV” value in data set [1] is on record as “obvious effect of synthesis inhibition”.

`O=C(O)C[C@@H]1C(=O)O[C@H]2[C@H](OC(=O)c3cc(O)c(O)c(O)c3)[C@@H](OC(=O)c3cc(O)c(O)c4c3[C@H]1[C@H](O)C(=O)O4)[C@H](OC(=O)c1cc(O)c(O)c(O)c1)O[C@@H]2COC(=O)c1cc(O)c(O)c(O)c1` [Chebulinic acid]: the VP6 expression entry in data set [2] is “significantly decreased”. Further, the “drug toxicity to the cells” value in data set [3] (1 μM to 10 μM) was “no drug toxicity”. Besides, the average survival rate result in data set [3] (Chebulinic acid 1 μM to 10 μM) is on record as “above 95%”. The “direct killing effect on RV” value in data set [4] was “no obvious direct killing effect”. Besides, the anti-RV adsorption effect result in data set [5] was “no obvious anti-RV adsorption effect”. Further, the “effect of synthesis inhibition on RV” value in data set [1] is on record as “obvious effect of synthesis inhibition”. In data set [1] (setting [6]), the inhibition (as a rule, the share of the control response that was lost under treatment) at 1 µM came to 80%; the inhibition at 5 µM is 75.3%; the inhibition at 10 µM is 61.9%.
